According to patent publication US11752125B2, “Anti-neuroinflammatory and protective compounds in Achillea fragrantissima” (THE STATE OF ISRAEL MINISTRY OF AGRICULTURE & RURAL …, priority 2013, dated 2023):

Tests used:
ERK1/2 = assay: Aβ25-35-induced ERK1/2 phosphorylation in N2a cells (ELISA); assay type: cell-based; conditions: concomitant treatment 30-40 min
Description: 7. Measure the amount of total and phosphorylated ERK 1/2 in cell lysates of N2a cells, by ELISA using the PathScan total p44/42 MAPK (ERK 1/2) sandwich ELISA kit (Cell Signaling TECHNOLOGY) or the PathScan phosoho-p44/42 MAPK (Thr202/Tyr204) sandwich ELISA kit (Cell Signaling TECHNOLOGY), respectively. 8. Determine the optical density at 450 nm using a microplate reader.
N2a cells were treated concomitantly with Aβ25-35 and TTF for 30 min. Cells were extracted and the levels of phosphorylated or total ERK1/2 were determined by specific ELISA kits. The results are shown in FIG. 14 and are the mean±SEM of two different experiments (n=4).
N2a cells were treated concomitantly with Aβ25-35 and achillolide A for 40 min. Cells were extracted and the levels of phosphorylated or total ERK 1/2 were determined by specific ELISA kits. The results are the mean±SEM of two different experiments (n=4).
N2a cells were treated concomitantly with Aβ25-35 and memantine for 30 min. Cells were extracted and the levels of phosphorylated ERK1/2 were determined by a specific ELISA kit. The results are the mean±SEM of one experiment (n=2).

ERK 1/2 = assay: H2O2-induced ERK 1/2 phosphorylation in astrocytes (ELISA); assay type: cell-based, rat; conditions: H2O2 175 μM 40 min; for effect on H2O2-induced phosphorylation of ERK1/2: astrocytes preincubated 2 h
Description: Astrocytes were treated with TTF 2 h before the addition of H2O2. Cells were lysed 40 minutes after the addition of H2O2 in lysis buffer supplied by PathScan sandwich ELISA kit (Cell Signaling TECHNOLOGY) according to the manufacturer's protocol. Protein concentrations in cell lysates were determined by Bradford reagent (Bio-Rad, Hercules, Calif.), and equal amounts of proteins were subjected to ELISA. To measure the amount of total and phosphoSAPK/JNK in cell lysates of astrocytes, ELISA was performed according to the manufacturer's protocol using the PathScan total SAPK/JNK sandwich ELISA kit (Cell Signaling TECHNOLOGY) and the PathScan phospho-SAPK/JNK (Thr183/Tyr185) sandwich ELISA kit (Cell Signaling TECHNOLOGY), respectively. To measure the amount of total and phospho-ERK 1/2 (i.e. phospho-p44/42 MAPK) in cell lysates of astrocytes, ELISA was performed according to the manufacturer's protocol using the PathScan total p44/42 MAPK (ERK 1/2) sandwich ELISA kit (Cell Signaling TECHNOLOGY) and the PathScan phospho-p44/42 MAPK (Thr202/Tyr204) sandwich ELISA kit (Cell Signaling TECHNOLOGY), respectively. To measure the amount of total and phospho-MEK1 in cell lysates of astrocytes, ELISA was performed according to the manufacturer's protocol using the PathScan total MEK1 sandwich ELISA kit (Cell Signaling TECHNOLOGY) and the PathScan phospho-MEK1 (Ser217/221) sandwich ELISA kit (Cell Signaling TECHNOLOGY), respectively. […] The optical density was determined at 450 nm using a microplate reader.
1. […] Determine the optical density at 450 nm using a microplate reader.
Astrocytes were treated with 175 μM of H2O2 for 40 min following preincubation with TTF for 2 h. The levels of phosphorylated and total SAPK/JNK (FIG. 3A), MEK1 (FIG. 3B) and ERK 1/2 (FIG. 3C) were measured by ELISA. […]

[1] = Hydrogen peroxide scavenging activity (A230); conditions: for H2O2 scavenged: 8 μM compound; for H2O2 scavenged / H2O2 scavenging ability at higher concentrations: 1 mM H2O2, 10 min; for H2O2 scavenging ability at higher concentrations: up to 32 μM compound; for H2O2 scavenging ability: 1 mM H2O2 in PBS, 10 min
Description: The scavenging of H2O2 was determined by the method of Ruch et al. Carcinogenesis. 1989 June; 10(6):1003-8, using 1 mM instead of 4 mM H2O2. A 1 mM solution of H2O2 was prepared in PBS and was incubated with different concentrations of TTF, quercetin or memantine. Absorbance (A230) was determined spectrophotometrically 10 min later against blank solutions containing TTF, quercetin or memantine in PBS without H2O2.
(§1) For assessment of H2O2 scavenging activity, 1 mM H2O2 and different concentrations of TTF, quercetin or memantine were co-incubated in PBS. Optical density was measured 10 min later. The results are shown in FIG. 6 and are means±SEM of two experiments performed in duplicates (n=4). **P<0.01, ***P<0.001, compared to H2O2 in the absence of TTF.
as §1, with “[…]” for “assessment”, “achillolide A,” for “TTF,”, “results” for “results are shown in FIG. 6 and”, “compound Results are shown in FIG. 38.” for “TTF.”

SMILES | effect on Aβ25-35-induced phosphorylation of ERK1/2 (ERK1/2) | inhibition of H2O2-induced phosphorylation of ERK 1/2 (ERK 1/2; astrocytes pretreated 2 h, total ERK 1/2 not affected) | H2O2 scavenged [1] | H2O2 scavenging ability at higher concentrations [1] | effect on H2O2-induced phosphorylation of ERK1/2 (ERK 1/2) | H2O2 scavenging ability [1]
COc1cc(-c2oc3cc(OC)c(OC)c(O)c3c(=O)c2O)ccc1O [TTF, 3,5,4′-trihydroxy-6,7,3′-trimethoxyflavone] | significantly inhibited | 30% | 7% | ≤ 7% | – | –
C=C1CCC2=C(CO)C(=O)O[C@H]2/C=C(\C)[C@H](OC(C)=O)CC1=O [achillolide A] | significantly decreased | – | – | – | inhibitory effect | hydrogen peroxide scavenging ability
CC12CC3CC(C)(C1)CC(N)(C3)C2 [memantine, reference compound] | does not affect | – | – | – | inhibitory effect | did not have any scavenging ability
O=c1c(O)c(-c2ccc(O)c(O)c2)oc2cc(O)cc(O)c12 [quercetin, 3,3′,4′,5,7-Pentahydroxyflavone, reference compound] | – | – | 57% | 88% | – | –
